Laboratory results taken from ChEMBL document CHEMBL3616477, “In vivo evaluation of isolated triterpenes and semi-synthetic derivatives as antimalarial agents” (2015).

Legend:
Plasmodium berghei [1] = assay: Antimalarial activity against Plasmodium berghei NK65 infected in BALB/c mouse assessed as inhibition of parasitemia at 25 mg/kg, sc qd for 4 days measured on 7th day after parasite inoculation by Giemsa staining based microscopy relative to control; type: functional; settings: 96 h
Plasmodium berghei [2] = assay: Antimalarial activity against Plasmodium berghei NK65 infected in BALB/c mouse assessed as mean survival time at 50 mg/kg, po qd for 4 days (reference value: 22 +/- 3 days); type: functional
Plasmodium berghei [3] = assay: Antimalarial activity against Plasmodium berghei NK65 infected in BALB/c mouse assessed as inhibition of parasitemia at 25 mg/kg, sc qd for 4 days measured on 5th day after parasite inoculation by Giemsa staining based microscopy relative to control; type: functional; settings: 96 h
Plasmodium berghei [4] = assay: Antimalarial activity against Plasmodium berghei NK65 infected in BALB/c mouse assessed as mean survival time at 50 mg/kg, sc qd for 4 days (reference value: 23 +/- 4 days); type: functional
Plasmodium berghei [5] = assay: Antimalarial activity against Plasmodium berghei NK65 infected in BALB/c mouse assessed as inhibition of parasitemia at 50 mg/kg, po qd for 4 days measured on 5th day after parasite inoculation by Giemsa staining based microscopy relative to control; type: functional; settings: 96 h
Plasmodium berghei [6] = assay: Antimalarial activity against Plasmodium berghei NK65 infected in BALB/c mouse assessed as inhibition of parasitemia at 25 mg/kg, po qd for 4 days measured on 5th day after parasite inoculation by Giemsa staining based microscopy relative to control; type: functional; settings: 96 h
Plasmodium berghei [7] = assay: Antimalarial activity against Plasmodium berghei NK65 infected in BALB/c mouse assessed as mean survival time at 25 mg/kg, po qd for 4 days (reference value: 22 +/- 3 days); type: functional
Plasmodium berghei [8] = assay: Antimalarial activity against Plasmodium berghei NK65 infected in BALB/c mouse assessed as inhibition of parasitemia at 25 mg/kg, po qd for 4 days measured on 7th day after parasite inoculation by Giemsa staining based microscopy relative to control; type: functional; settings: 96 h
Plasmodium berghei [9] = assay: Antimalarial activity against Plasmodium berghei NK65 infected in BALB/c mouse assessed as inhibition of parasitemia at 50 mg/kg, po qd for 4 days measured on 7th day after parasite inoculation by Giemsa staining based microscopy relative to control; type: functional; settings: 96 h
Plasmodium berghei [10] = assay: Antimalarial activity against Plasmodium berghei NK65 infected in BALB/c mouse assessed as mean survival time at 25 mg/kg, sc qd for 4 days (reference value: 23 +/- 4 days); type: functional
Plasmodium berghei [11] = assay: Antimalarial activity against Plasmodium berghei NK65 infected in BALB/c mouse assessed as inhibition of parasitemia at 50 mg/kg, sc qd for 4 days measured on 7th day after parasite inoculation by Giemsa staining based microscopy relative to control; type: functional; settings: 96 h
Plasmodium berghei [12] = assay: Antimalarial activity against Plasmodium berghei NK65 infected in BALB/c mouse assessed as inhibition of parasitemia at 50 mg/kg, sc qd for 4 days measured on 5th day after parasite inoculation by Giemsa staining based microscopy relative to control; type: functional; settings: 96 h
Plasmodium berghei [13] = assay: Antimalarial activity against Plasmodium berghei NK65 infected in BALB/c mouse assessed as mean survival time at 5 mg/kg, sc qd for 4 days (reference value: 23 +/- 4 days); type: functional; settings: 96 h
Plasmodium berghei [14] = assay: Antimalarial activity against Plasmodium berghei NK65 infected in BALB/c mouse assessed as inhibition of parasitemia at 5 mg/kg, po qd for 4 days measured on 7th day after parasite inoculation by Giemsa staining based microscopy relative to control; type: functional; settings: 96 h
Plasmodium berghei [15] = assay: animal or person; settings: NK65, in Mus musculus, po, 96 h, read-out: INH
Description: Antimalarial activity against Plasmodium berghei NK65 infected in BALB/c mouse assessed as inhibition of parasitemia at 5 mg/kg, po qd for 4 days measured on 5th day after parasite inoculation by Giemsa staining based microscopy relative to control

Plasmodium berghei [16] = assay: Antimalarial activity against Plasmodium berghei NK65 infected in BALB/c mouse assessed as inhibition of parasitemia at 5 mg/kg, sc qd for 4 days measured on 5th day after parasite inoculation by Giemsa staining based microscopy relative to control; type: functional; settings: 96 h
Plasmodium berghei [17] = assay: Antimalarial activity against Plasmodium berghei NK65 infected in BALB/c mouse assessed as mean survival time at 5 mg/kg, po qd for 4 days (reference value: 22 +/- 3 days); type: functional
Plasmodium berghei [18] = assay: Antimalarial activity against Plasmodium berghei NK65 infected in BALB/c mouse assessed as inhibition of parasitemia at 5 mg/kg, sc qd for 4 days measured on 7th day after parasite inoculation by Giemsa staining based microscopy relative to control; type: functional; settings: 96 h

| SMILES | inhibition in vivo at 25 mg/kg (Plasmodium berghei [1]) [%] | MST (Plasmodium berghei [2]) [days] | inhibition in vivo at 25 mg/kg (Plasmodium berghei [3]) [%] | MST (Plasmodium berghei [4]) [days] | inhibition in vivo at 50 mg/kg (Plasmodium berghei [5]) [%] | inhibition in vivo at 25 mg/kg (Plasmodium berghei [6]) [%] | MST (Plasmodium berghei [7]) [days] | inhibition in vivo at 25 mg/kg (Plasmodium berghei [8]) [%] | inhibition in vivo at 50 mg/kg (Plasmodium berghei [9]) [%] | MST (Plasmodium berghei [10]) [days] | inhibition in vivo at 50 mg/kg (Plasmodium berghei [11]) [%] | inhibition in vivo at 50 mg/kg (Plasmodium berghei [12]) [%] | mean survival time at 5 mg/kg (Plasmodium berghei [13]) [days] | inhibition in vivo at 5 mg/kg (Plasmodium berghei [14]) [%] | inhibition in vivo at 5 mg/kg (Plasmodium berghei [15]) [%] | inhibition in vivo at 5 mg/kg (Plasmodium berghei [16]) [%] | mean survival time at 5 mg/kg (Plasmodium berghei [17]) [days] | inhibition in vivo at 5 mg/kg (Plasmodium berghei [18]) [%] |
| --- | --- | --- | --- | --- | --- | --- | --- | --- | --- | --- | --- | --- | --- | --- | --- | --- | --- | --- |
| CC(C)=C[C@H](O)C[C@@H](C)[C@H]1CC[C@@]2(C)[C@@H]3[C@@H](O[C@@H]4O[C@H](CO)[C@@H](O)[C@@H](O)[C@H]4O)C=C4[C@@H](CC[C@H](O)C4(C)C)[C@]3(C)CC[C@]12C [BALSAMINOSIDE B] | 0 | 23 | 12.5 | 21 | 36.2 | 23.9 | 21 | 0 | 8.6 | 20 | 5.5 | 37.1 |  |  |  |  |  |  |
| CCN(CC)CCCC(C)Nc1ccnc2cc(Cl)ccc12 (centres undefined) [CHLOROQUINE] |  |  |  |  |  |  |  |  |  |  |  |  | > 40 | 98 | 100 | 99 | > 40 | 99 |
| CO[C@H]1C=C2[C@@H](CC[C@H](O)C2(C)C)[C@]2(C)CC[C@]3(C)[C@@H]([C@H](C)C[C@@H](O)C=C(C)C)CC[C@@]3(C)[C@H]12 [KARAVELAGENIN C] | 0 | 22 | 21.3 | 22 | 33.1 | 22.7 | 21 | 0 | 3.4 | 23 | 1 | 18.6 |  |  |  |  |  |  |
| CO[C@H]1C=C2[C@@H](CC[C@H](OC(C)=O)C2(C)C)[C@]2(C)CC[C@]3(C)[C@@H]([C@H](C)C[C@H](C=C(C)C)OC(C)=O)CC[C@@]3(C)[C@H]12 [KARAVOATE B] | 10.1 | 23 | 39.2 | 24 | 58.1 | 41.8 | 21 | 13.2 | 25.6 | 20 | 28.4 | 55.2 |  |  |  |  |  |  |
| CCC(=O)O[C@H]1CC[C@@H]2C(=C[C@H](OC)[C@@H]3[C@@]2(C)CC[C@]2(C)[C@@H]([C@H](C)C[C@H](C=C(C)C)OC(=O)CC)CC[C@@]32C)C1(C)C [KARAVOATE D] | 0 | 24 | 11.9 | 24 | 45.5 | 12.3 | 23 | 0 | 11.5 | 22 | 10.5 | 42.5 |  |  |  |  |  |  |
